Results as given in ChEMBL document CHEMBL5579876, “Small Molecules Blocking the Assembly of TCAB1 and Telomerase Complexes: Lead Discovery and Biological Activity” (ACS Med Chem Lett, 2024).
Active and inactive are the calls of the source. The rule behind the calls is not given here.

Assays:
HL-60 = assay: cells; conditions: Homo sapiens, HL-60, 96 h
Description: Antiproliferative activity against human HL-60 cells assessed as inhibition of cell growth measured after 96 hrs by CCK-8 assay

CT26 = assay: cells; conditions: Mus musculus, CT26, 96 h
Description: Antiproliferative activity against mouse CT26 cells assessed as inhibition of cell growth measured after 96 hrs by CCK-8 assay

[1] = molecular target: Telomerase reverse transcriptase (Homo sapiens, UniProt O14746); assay: Inhibition of telomerase activity in human HL-60 cells incubated for 96 hrs by TRAP-PCR assay; type: cell-based
Sequence of Telomerase reverse transcriptase (O14746 whole entry): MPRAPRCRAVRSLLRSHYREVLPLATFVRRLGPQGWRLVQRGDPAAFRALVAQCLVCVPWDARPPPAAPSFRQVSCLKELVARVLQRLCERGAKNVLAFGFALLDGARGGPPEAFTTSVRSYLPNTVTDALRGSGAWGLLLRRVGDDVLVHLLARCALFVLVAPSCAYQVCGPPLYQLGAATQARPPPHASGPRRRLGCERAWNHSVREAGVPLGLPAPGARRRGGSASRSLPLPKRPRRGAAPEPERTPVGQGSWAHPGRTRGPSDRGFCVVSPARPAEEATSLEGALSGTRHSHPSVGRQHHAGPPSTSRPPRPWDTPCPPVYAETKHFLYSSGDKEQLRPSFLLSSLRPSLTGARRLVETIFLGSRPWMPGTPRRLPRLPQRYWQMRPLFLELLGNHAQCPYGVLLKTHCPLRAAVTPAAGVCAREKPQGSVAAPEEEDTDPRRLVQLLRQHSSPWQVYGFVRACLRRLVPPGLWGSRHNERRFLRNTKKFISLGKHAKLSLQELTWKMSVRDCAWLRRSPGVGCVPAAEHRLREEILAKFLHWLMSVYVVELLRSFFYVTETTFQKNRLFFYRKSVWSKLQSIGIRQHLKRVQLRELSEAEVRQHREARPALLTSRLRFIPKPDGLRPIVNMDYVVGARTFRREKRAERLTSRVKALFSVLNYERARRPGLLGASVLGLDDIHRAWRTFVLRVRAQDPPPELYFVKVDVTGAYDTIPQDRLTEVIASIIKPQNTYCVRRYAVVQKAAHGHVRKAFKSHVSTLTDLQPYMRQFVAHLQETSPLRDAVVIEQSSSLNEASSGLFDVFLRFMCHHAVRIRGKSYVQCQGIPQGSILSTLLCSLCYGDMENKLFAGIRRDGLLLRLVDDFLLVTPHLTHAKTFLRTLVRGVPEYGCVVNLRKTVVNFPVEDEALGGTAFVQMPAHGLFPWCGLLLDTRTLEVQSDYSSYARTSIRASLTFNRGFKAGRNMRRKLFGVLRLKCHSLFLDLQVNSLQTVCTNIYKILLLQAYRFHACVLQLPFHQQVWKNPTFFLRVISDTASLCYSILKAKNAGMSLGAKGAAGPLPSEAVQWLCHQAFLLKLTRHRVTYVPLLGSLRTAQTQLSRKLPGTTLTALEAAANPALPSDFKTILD

[2] = Cytotoxicity against human GES1 cells assessed as inhibition of cell growth measured after 96 hrs by CCK-8 assay; type: toxicity, cell-based
[3] = molecular target: Telomerase Cajal body protein 1 (Homo sapiens) (UniProt Q9BUR4); assay: Inhibition of hTERT binding to TCAB1 in human HL-60 cells at 10 uM incubated for 48 hrs by Co-IP analysis; type: cell-based
Sequence of Telomerase Cajal body protein 1 (Homo sapiens) (Q9BUR4 whole entry): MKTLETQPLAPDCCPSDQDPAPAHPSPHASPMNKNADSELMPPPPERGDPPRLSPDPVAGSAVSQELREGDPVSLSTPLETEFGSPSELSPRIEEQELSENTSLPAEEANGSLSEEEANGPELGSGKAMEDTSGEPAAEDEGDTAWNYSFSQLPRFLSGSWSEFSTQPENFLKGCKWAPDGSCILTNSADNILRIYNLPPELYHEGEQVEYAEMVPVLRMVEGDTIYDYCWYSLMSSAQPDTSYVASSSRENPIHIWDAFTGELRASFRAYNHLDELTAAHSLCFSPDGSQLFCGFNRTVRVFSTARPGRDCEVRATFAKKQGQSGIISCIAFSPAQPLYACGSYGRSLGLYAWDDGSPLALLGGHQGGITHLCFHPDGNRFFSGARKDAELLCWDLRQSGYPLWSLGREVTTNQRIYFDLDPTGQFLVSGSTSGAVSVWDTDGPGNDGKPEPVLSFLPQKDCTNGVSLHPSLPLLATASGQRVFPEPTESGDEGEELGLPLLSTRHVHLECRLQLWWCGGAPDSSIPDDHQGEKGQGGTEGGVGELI

[4] = molecular target: Telomerase Cajal body protein 1 (Homo sapiens) (UniProt Q9BUR4); assay: Thermal stabilization of TCAB1 in human HL-60 cells at 10 uM incubated for 30 mins by CETSA; type: cell-based

IC50 [1] [µM] | SMILES | other results
0.091 | C/C(=C\C(=O)Nc1ccccc1C(=O)O)c1ccc2ccccc2c1 | IC50 (HL-60): 47.8 µM; IC50 (CT26): 42.9 µM; IC50 at 96 h [2]: 206 µM
> 10 | CCOC(=O)C1=C(C)N=c2s/c(=C\c3ccc(O)c(OC)c3)c(=O)n2C1c1ccc(OCC)cc1 (configuration not stated) | –
> 10 | O=C(CCS(=O)(=O)c1nc(-c2ccccc2)cc(C(F)(F)F)n1)Nc1cccnc1Cl | –
> 10 | CCOc1cc(C2NC(=O)NC(C)=C2C(=O)OCc2ccc3c(c2)OCO3)ccc1O (configuration not stated) | –
– | O=C(C1=C(O)C(=O)N(Cc2ccco2)C1c1cccc(O)c1)c1ccc2c(c1)OCCO2 (configuration not stated) | IC50 (HL-60): > 200 µM; IC50 (CT26): > 200 µM; inhibition [3]: inactive; Activity [4]: Active; IC50 at 96 h [2]: > 1000 µM
> 10 | CCOc1cc(C2C(C#N)=C(N)Oc3n[nH]c(C(C)(C)C)c32)ccc1OCCN1CCOCC1 (configuration not stated) | –
> 10 | CCCc1cc(=O)oc2cc(OCC(=O)Nc3ccc(S(N)(=O)=O)cc3)c(Cl)cc12 | –
> 10 | Cc1ccc2nc(NCCO)c(/C=C3\SC(=S)N(Cc4ccc5c(c4)OCO5)C3=O)c(=O)n2c1 | –
– | COC(=O)C1=C(C)N(CC2CCCO2)C(=O)/C1=C\c1ccc(OCC(=O)NC(C)C)cc1 (configuration not stated) | IC50 (HL-60): 156 µM; IC50 (CT26): 26.9 µM; inhibition [3]: inactive; Activity [4]: Active; IC50 at 96 h [2]: > 1000 µM
– | C#CCOc1ccc(/C=C2\SC(Nc3ccc(OCC)cc3)=C(C(=O)OCC)C2=O)cc1OC | IC50 (HL-60): > 200 µM; IC50 (CT26): 46.3 µM; inhibition [3]: inactive; Activity [4]: Active; IC50 at 96 h [2]: > 1000 µM
> 10 | COc1ccc(-c2ccc(S(=O)(=O)NCCO)cc2)c(S(=O)(=O)NCCO)c1 | –
> 10 | CCOc1cc(C2NC(=O)N(C)C(C)=C2C(=O)OCC2CCCO2)cc(Cl)c1O (configuration not stated) | –
> 10 | CCn1c(CN2NC(C)=CCC2=O)nnc1SCC(=O)Nc1ccc(S(N)(=O)=O)cc1 | –
> 10 | CCOc1cc(/C=C2/C(=N)N3N=C(C)SC3=NC2=O)ccc1OCCOc1cccc(OC)c1 | –
> 10 | CC(=O)c1cccc(/N=c2\scc(-c3ccc(S(=O)(=O)N4CCOCC4)cc3)n2CCO)c1 | –
> 10 | COc1ccc(C2C(C(=O)Nc3ccc(Cl)cc3)=C(C)N=C3N=C(CCCO)NN32)c(OC)c1 (configuration not stated) | –
> 10 | COc1ccc(C(=O)C2=C(O)C(=O)N(CCO)C2c2ccc(C)cc2)cc1 (configuration not stated) | –
> 10 | CC(=O)Nc1ccc(/C=C2\C=C(C(O)c3ccc(NC(C)=O)cc3)c3ccccc32)cc1 (configuration not stated) | –
> 10 | O=C(C1=C(O)C(=O)N(CCOCCO)C1c1cccc(O)c1)c1cccs1 (configuration not stated) | –
> 10 | CCOc1ccc(N2C(=O)CC(N(CCc3ccc(S(N)(=O)=O)cc3)C(C)=O)C2=O)cc1 (configuration not stated) | –
> 10 | CCOC(=O)c1cccc(NC(=O)CSc2nnc(-c3cccnc3)n2-c2ccc(OC)cc2)c1 | –
> 10 | CCC(CO)NS(=O)(=O)c1cccc2c(S(=O)(=O)NC(CC)CO)cccc12 (configuration not stated) | –
